Measurements: patent US5786364A, “Bicyclic isothiourea derivatives useful in therapy” (priority 1995, dated 1998)
Read-outs that look alike come from different tables or passages of the source. Values belong to the compound of their own block, whether it stands above or below them.

Legend:
Format in all cases: biochemical
[1] = target: T1, neuronal nitric oxide synthase (Rattus norvegicus, UniProt P29476); test: Screen A: screen for neuronal nitric oxide synthase inhibiting activity (conversion of 3H-L-arginine to 3H-L-citrulline)
T1 construct: Enzyme was isolated from rat hippocampus or cerebellum; from tissue; host or cells: hippocampus or cerebellum of male Sprague-Dawley rat, 20,000 g supernatant

[2] = target: T2, endothelial nitric oxide synthase (Homo sapiens, UniProt P29474); test: Screen C: screen for endothelial nitric oxide synthase inhibiting activity (HUVEC enzyme)
T2 construct: Enzyme may be isolated from human umbilical vein endothelial cells (HUVECs); host or cells: human umbilical vein endothelial cells (HUVECs)

[3] = target: T3, inducible nitric oxide synthase (Homo sapiens, UniProt P35228); test: Screen B: screen for inducible nitric oxide synthase inhibiting activity (DLD-1 cell lysate)
T3 construct: Enzyme is prepared, after induction, from the cultured human colorectal carcinoma cell line, DLD-1; endogenous in cells; host or cells: DLD-1 cells (European Collection of Animal Cell Cultures), induced with IL-1, IFN-gamma, IL-6 and TNF-alpha; cell lysate

T1 sequence (P29476 whole entry): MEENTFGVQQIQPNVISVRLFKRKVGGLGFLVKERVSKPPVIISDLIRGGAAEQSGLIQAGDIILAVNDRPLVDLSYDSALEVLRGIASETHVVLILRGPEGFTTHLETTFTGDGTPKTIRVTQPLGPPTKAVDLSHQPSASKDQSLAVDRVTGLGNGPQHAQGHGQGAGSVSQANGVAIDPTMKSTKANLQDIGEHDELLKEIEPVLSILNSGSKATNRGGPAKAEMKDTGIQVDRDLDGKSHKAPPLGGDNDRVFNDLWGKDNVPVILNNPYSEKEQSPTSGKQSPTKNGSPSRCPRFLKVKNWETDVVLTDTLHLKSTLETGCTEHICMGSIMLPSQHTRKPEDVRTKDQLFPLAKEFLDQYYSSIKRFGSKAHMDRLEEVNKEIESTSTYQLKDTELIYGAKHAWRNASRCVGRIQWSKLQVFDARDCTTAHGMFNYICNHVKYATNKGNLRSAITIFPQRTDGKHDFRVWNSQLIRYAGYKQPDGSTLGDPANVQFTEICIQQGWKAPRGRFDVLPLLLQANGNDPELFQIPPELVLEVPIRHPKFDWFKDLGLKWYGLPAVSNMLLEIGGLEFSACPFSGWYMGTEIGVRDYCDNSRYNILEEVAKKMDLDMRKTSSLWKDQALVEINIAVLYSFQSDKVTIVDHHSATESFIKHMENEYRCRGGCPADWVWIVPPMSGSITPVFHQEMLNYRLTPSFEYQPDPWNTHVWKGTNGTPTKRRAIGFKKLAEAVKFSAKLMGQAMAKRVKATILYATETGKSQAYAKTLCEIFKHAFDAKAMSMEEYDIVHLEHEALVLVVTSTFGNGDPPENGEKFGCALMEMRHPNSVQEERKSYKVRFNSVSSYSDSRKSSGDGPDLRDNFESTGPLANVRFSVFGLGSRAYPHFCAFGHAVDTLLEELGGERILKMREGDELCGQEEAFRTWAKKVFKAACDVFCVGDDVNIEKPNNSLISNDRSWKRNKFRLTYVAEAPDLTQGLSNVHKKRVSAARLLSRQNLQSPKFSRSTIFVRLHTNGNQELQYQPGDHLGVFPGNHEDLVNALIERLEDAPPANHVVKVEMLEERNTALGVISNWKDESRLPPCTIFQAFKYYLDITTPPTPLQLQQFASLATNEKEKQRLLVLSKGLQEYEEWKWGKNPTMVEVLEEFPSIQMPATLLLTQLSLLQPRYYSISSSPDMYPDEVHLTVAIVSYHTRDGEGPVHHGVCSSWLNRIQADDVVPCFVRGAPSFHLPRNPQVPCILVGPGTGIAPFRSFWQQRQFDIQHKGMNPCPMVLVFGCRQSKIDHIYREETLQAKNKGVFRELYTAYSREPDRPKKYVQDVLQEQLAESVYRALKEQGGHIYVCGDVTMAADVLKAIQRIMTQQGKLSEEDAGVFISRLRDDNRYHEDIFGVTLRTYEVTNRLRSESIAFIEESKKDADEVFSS
T2 sequence (P29474 2-1203): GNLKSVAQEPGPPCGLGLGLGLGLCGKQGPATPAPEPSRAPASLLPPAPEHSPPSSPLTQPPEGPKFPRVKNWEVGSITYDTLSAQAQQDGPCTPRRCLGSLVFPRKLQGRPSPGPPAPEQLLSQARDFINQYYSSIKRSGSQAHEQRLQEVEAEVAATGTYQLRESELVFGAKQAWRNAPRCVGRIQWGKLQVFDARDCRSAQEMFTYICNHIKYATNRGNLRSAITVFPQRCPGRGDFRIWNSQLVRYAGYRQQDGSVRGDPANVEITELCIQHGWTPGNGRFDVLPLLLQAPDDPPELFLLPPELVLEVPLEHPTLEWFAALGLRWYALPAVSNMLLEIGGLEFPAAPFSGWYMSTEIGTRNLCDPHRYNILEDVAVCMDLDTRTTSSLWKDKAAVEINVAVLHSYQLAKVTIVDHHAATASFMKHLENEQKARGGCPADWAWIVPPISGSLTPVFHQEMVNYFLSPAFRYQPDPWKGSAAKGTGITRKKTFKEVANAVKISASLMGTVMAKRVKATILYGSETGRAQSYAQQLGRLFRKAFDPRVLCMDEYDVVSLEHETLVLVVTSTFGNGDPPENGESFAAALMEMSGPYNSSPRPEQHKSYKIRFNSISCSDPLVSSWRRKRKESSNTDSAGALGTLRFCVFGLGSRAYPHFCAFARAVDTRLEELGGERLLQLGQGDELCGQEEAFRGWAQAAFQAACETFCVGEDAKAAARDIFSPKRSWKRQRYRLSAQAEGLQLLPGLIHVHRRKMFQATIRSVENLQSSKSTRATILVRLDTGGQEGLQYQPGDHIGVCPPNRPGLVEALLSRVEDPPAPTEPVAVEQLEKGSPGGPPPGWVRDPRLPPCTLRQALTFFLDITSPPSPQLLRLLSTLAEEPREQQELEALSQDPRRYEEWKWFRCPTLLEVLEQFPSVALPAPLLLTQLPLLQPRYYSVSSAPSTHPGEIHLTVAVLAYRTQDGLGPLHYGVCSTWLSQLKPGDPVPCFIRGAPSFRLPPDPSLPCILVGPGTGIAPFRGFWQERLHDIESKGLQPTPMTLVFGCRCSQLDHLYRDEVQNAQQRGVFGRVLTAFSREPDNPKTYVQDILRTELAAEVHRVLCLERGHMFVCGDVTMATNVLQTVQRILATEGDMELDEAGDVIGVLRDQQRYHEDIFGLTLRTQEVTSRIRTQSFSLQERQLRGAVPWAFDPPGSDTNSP

inhibition at 1 µM ([1]; at a concentration of 1 μM, cerebellar supernatant, typical experiment, read-out: inhibition of nitric oxide synthase (Screen A reference standard)): 80%
inhibition at 1 µM ([2]; at a concentration of 1 μM, typical experiment, read-out: inhibition of nitric oxide synthase (Screen C reference standard)): 70 to 90%
Compound: NC(=NCCC[C@H](N)C(=O)O)N[N+](=O)[O-] [N-nitro-L-arginine, reference compound]

IC50 ([1]; neuronal isoform, rat hippocampus or cerebellum supernatant, read-out: IC50 (Screen A)): < 10 µM
Compound: CCSC(=N)Nc1ccc2c(c1)CC(N(C)Cc1cccc(Cl)c1)C2 (stereo not shown) [Example 2, N-5-(2-(((3-chlorophenyl)methyl)(methyl)amino)indanyl)carbamimidothioic acid, ethyl ester]

IC50 ([3]; inducible isoform, DLD-1 cell lysate, standard to verify the procedure, read-out: IC50 (50% inhibitory concentration) (Screen B standard)): 10 µM
Compound: N=C(N)NN [Aminoguanidine, reference compound]

Compound: CCSC(=N)Nc1ccc2c(c1)CNCC2 [Example 1, N-(1,2,3,4-tetrahydroisoquinolin-7-yl)carbamimidothioic acid ethyl ester]
IC50 [1]: < 10 µM
IC50 in Screen B relative to that obtained in Screen A (selectivity) ([3]; Screen B (macrophage isoform) IC50 / Screen A (neuronal) IC50): more than 10 times
IC50 in Screen C relative to that obtained in Screen A (selectivity) ([2]; Screen C (endothelial isoform) IC50 / Screen A (neuronal) IC50): more than 10 times
